Laboratory results published in ChEMBL document CHEMBL5465560, “Selectivity Literature for EUbOPEN Chemogenomic Library” (2024).

Tests used:
[1] = biological target: Citron Rho-interacting kinase (Homo sapiens) (UniProt O14578); test: Selectivity interaction (KinomeScan (DiscoverX)) EUB0001049a CIT; settings: at 1 µM
[2] = biological target: Phosphatidylinositol 4,5-bisphosphate 3-kinase catalytic subunit beta isoform (Homo sapiens) (UniProt P42338); test: Selectivity interaction (KinomeScan (DiscoverX)) EUB0001049a PIK3CB; settings: at 1 µM
Chain of Phosphatidylinositol 4,5-bisphosphate 3-kinase catalytic subunit beta isoform (Homo sapiens) (P42338 whole entry, looked up, canonical isoform): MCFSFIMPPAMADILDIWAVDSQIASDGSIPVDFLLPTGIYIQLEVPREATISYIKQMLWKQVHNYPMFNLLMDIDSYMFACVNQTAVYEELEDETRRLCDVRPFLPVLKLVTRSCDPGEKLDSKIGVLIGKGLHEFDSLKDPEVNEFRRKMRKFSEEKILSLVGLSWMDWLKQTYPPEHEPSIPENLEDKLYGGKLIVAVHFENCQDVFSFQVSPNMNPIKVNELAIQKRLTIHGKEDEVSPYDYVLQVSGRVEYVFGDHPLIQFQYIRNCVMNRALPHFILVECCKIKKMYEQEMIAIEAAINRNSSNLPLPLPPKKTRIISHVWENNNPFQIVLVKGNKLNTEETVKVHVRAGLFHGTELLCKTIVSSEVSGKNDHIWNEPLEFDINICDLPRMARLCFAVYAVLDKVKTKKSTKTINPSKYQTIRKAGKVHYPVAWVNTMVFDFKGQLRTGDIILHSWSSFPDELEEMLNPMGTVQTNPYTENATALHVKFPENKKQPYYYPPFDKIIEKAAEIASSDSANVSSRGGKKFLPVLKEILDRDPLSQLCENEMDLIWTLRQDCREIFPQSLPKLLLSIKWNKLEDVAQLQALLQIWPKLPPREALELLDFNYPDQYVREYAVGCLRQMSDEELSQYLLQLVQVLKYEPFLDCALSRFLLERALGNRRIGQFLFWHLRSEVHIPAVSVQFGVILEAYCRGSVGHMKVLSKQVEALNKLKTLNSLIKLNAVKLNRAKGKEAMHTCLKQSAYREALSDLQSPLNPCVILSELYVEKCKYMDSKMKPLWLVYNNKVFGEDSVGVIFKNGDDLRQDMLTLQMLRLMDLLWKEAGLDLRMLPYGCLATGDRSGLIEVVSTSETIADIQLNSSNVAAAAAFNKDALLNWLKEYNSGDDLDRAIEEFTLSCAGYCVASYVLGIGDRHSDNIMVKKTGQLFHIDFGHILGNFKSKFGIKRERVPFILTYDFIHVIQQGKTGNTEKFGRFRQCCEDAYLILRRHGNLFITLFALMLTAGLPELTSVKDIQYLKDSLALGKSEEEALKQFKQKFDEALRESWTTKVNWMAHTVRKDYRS

[3] = biological target: Ephrin type-A receptor 2 (Homo sapiens) (UniProt P29317); test: Selectivity interaction (KinomeScan (DiscoverX)) EUB0000229b EPHA2; settings: at 10 µM
Chain of Ephrin type-A receptor 2 (Homo sapiens) (P29317 whole entry): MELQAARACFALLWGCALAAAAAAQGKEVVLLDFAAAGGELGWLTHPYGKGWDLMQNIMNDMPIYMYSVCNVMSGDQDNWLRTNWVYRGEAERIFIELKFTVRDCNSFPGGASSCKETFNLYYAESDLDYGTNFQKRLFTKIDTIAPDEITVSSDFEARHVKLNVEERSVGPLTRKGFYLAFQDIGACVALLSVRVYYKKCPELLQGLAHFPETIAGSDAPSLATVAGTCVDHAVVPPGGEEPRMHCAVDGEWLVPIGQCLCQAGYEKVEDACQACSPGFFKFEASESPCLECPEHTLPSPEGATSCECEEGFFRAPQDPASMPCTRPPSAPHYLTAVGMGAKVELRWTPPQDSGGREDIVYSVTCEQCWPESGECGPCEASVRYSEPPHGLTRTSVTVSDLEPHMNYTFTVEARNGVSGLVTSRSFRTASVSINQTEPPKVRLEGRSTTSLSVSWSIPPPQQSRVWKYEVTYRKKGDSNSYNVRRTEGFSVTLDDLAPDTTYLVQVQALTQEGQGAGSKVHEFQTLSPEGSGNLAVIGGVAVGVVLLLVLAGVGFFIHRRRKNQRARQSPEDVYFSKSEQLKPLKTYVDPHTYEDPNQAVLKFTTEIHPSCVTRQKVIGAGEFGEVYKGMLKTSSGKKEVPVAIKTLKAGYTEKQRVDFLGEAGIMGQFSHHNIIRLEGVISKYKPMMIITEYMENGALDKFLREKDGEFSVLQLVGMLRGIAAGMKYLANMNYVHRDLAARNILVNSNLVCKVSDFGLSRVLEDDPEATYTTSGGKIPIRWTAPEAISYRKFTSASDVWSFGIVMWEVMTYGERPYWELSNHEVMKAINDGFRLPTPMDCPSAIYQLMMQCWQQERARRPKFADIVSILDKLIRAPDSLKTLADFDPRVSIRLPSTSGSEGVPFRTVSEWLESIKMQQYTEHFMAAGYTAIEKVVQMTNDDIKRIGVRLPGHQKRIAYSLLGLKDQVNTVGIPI

[4] = biological target: T1, Dual specificity protein kinase TTK (Homo sapiens) (UniProt P33981); test: Selectivity interaction (KinomeScan (DiscoverX)) EUB0001079a TTK; settings: at 1 µM
T1 sequence (whole entry): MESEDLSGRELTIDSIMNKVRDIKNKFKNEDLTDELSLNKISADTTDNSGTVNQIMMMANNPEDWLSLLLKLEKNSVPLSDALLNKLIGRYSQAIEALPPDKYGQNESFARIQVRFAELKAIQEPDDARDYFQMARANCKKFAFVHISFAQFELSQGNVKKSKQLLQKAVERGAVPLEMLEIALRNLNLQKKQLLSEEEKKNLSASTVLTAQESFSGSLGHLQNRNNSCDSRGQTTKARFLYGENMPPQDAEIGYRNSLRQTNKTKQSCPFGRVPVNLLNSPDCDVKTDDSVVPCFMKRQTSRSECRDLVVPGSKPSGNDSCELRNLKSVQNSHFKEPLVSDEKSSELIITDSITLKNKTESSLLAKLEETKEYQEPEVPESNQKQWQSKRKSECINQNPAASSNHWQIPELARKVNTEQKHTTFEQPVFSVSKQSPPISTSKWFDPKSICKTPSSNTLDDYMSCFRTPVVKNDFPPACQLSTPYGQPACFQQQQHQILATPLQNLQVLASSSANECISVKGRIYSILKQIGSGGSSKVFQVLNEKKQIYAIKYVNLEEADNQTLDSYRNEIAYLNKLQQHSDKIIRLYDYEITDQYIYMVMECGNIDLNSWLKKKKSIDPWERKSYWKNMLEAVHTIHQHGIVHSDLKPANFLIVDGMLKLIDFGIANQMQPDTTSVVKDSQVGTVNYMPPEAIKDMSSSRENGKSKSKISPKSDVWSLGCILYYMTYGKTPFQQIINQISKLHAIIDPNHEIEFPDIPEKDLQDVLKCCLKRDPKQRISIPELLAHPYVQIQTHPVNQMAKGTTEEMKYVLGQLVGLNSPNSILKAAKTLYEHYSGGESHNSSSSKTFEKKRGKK

[5] = biological target: Tyrosine-protein kinase FRK (Homo sapiens) (UniProt P42685); settings: at 10 µM
[6] = biological target: T2, Serine/threonine-protein kinase Nek1 (Homo sapiens) (UniProt Q96PY6); test: Selectivity interaction (KinomeScan (DiscoverX)) EUB0001619a NEK1; settings: at 1 µM
T2 sequence (whole entry): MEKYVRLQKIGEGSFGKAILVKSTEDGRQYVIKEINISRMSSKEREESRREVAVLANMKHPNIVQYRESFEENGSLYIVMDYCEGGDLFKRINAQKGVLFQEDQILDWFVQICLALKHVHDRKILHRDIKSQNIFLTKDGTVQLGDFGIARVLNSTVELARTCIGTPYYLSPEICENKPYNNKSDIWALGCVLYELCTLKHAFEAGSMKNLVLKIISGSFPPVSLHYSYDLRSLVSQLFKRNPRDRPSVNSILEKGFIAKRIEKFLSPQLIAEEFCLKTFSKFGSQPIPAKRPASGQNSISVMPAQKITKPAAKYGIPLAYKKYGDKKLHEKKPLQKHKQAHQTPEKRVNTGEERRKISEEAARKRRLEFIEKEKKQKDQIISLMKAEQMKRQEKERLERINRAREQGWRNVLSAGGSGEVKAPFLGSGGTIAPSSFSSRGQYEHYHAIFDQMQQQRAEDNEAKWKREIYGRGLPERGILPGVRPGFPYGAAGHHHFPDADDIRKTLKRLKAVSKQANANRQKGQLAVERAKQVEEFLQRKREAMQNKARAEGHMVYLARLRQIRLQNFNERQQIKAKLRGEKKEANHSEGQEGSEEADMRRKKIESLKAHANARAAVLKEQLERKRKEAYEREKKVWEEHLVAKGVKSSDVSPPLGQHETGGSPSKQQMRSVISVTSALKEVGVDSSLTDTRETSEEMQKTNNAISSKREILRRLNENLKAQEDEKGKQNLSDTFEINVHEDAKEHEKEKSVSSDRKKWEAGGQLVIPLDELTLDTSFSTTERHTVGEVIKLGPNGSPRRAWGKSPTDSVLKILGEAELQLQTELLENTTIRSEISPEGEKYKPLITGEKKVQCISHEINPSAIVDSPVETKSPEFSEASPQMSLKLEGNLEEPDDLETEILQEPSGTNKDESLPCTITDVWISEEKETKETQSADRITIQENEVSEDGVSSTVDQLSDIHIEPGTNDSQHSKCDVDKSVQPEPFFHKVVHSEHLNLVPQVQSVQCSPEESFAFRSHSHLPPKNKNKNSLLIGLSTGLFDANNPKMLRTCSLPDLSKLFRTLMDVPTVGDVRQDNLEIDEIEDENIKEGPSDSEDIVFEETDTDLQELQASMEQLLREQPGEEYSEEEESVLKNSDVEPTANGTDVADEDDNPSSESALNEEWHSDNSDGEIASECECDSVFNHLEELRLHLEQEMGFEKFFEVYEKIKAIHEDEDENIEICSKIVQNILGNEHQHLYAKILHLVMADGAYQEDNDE

[7] = biological target: Protein kinase C theta type (Homo sapiens, UniProt Q04759); test: Selectivity interaction (KinomeScan (DiscoverX)) EUB0001619a PRKCQ; settings: at 1 µM
[8] = biological target: Ephrin type-A receptor 7 (Homo sapiens) (UniProt Q15375); test: Selectivity interaction (ProQinase) EUB0000171b EPHA7
Chain of Ephrin type-A receptor 7 (Homo sapiens) (Q15375 28-998 limits assumed): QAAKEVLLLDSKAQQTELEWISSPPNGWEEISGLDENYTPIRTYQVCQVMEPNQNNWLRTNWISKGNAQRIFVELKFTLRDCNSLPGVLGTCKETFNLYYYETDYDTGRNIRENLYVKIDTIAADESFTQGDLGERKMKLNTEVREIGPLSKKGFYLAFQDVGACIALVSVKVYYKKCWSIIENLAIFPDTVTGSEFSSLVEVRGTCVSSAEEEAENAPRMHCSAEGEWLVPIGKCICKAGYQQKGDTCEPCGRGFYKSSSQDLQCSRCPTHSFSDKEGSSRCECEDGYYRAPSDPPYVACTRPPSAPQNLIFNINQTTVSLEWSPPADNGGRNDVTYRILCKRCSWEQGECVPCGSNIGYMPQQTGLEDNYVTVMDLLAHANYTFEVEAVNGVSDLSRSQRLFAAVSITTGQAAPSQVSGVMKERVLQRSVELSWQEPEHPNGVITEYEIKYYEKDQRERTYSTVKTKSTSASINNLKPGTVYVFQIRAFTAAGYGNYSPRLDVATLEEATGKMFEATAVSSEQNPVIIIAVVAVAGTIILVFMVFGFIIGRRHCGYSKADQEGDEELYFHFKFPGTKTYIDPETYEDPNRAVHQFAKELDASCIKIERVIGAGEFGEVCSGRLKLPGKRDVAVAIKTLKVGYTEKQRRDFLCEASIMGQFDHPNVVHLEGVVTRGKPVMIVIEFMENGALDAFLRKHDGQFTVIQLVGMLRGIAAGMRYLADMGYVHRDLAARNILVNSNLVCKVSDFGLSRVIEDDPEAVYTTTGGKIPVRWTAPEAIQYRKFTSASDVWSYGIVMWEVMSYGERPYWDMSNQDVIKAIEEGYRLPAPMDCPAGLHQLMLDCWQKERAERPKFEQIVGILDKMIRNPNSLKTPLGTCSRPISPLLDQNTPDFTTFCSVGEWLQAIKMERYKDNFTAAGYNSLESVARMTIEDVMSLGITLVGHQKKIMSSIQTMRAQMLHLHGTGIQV

Chain of Citron Rho-interacting kinase (Homo sapiens) (O14578 whole entry, canonical isoform): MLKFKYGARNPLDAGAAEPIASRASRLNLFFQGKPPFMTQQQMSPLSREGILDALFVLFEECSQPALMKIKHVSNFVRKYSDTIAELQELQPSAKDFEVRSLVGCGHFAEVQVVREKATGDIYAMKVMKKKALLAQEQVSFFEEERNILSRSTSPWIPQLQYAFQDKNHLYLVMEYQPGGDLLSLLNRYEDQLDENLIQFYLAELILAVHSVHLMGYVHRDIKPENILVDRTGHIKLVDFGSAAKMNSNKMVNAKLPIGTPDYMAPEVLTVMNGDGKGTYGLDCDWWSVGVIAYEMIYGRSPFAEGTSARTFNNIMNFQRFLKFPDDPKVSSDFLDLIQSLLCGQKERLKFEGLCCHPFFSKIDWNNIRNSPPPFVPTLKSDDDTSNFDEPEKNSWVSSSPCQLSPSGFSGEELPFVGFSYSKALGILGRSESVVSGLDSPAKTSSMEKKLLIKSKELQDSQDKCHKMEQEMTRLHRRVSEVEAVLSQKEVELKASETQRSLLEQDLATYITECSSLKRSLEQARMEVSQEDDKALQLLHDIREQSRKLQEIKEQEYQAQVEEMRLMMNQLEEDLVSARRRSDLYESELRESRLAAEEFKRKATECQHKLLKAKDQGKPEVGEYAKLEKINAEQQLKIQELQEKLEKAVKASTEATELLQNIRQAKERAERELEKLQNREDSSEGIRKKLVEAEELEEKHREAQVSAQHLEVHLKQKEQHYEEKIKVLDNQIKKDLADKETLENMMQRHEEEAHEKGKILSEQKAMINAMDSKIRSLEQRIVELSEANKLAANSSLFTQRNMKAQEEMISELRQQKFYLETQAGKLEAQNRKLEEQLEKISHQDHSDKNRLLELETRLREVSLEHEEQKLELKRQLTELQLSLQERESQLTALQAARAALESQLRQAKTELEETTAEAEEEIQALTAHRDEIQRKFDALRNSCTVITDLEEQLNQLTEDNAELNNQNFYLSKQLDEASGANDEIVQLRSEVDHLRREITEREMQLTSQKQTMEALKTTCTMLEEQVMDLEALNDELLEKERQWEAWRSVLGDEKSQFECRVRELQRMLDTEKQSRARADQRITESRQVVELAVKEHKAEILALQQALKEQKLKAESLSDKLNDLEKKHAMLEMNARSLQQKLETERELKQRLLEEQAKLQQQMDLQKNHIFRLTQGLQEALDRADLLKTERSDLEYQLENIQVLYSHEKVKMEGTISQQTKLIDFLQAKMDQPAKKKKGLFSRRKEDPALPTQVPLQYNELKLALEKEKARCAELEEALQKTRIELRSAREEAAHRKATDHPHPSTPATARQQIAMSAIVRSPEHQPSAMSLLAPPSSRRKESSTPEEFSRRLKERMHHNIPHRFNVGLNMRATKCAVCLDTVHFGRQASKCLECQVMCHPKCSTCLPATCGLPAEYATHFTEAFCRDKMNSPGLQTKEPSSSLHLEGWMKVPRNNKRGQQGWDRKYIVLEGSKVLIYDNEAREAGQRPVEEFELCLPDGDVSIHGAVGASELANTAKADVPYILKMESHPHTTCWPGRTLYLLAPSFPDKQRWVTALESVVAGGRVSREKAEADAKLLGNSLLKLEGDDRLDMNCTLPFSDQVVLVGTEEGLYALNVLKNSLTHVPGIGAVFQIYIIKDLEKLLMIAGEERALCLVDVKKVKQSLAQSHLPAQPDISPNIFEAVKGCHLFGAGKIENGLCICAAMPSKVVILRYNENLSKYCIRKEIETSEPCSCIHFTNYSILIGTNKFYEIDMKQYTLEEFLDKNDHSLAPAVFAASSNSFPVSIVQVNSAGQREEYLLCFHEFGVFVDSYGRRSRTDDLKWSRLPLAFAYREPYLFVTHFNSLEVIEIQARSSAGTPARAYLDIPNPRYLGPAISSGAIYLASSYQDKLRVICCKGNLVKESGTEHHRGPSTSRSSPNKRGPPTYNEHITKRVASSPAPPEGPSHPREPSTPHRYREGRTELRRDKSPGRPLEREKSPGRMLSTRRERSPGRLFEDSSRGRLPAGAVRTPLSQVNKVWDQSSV

COc1cc(Nc2nc(C)cc(-c3cnn4nc(OC)ccc34)n2)cc(C(F)(F)F)c1
% of control [1]: 100%
% of control [2]: 55%

COc1cc(N(C)c2ccnc3ccc(C(F)(F)F)cc23)cc(OC)c1OC
% binding [3]: 88%

Nc1cnc(N2CCc3cc(S(=O)(=O)Nc4c(F)cc(Cl)cc4F)cc(N4CCCC4=O)c32)nc1 [TP-020n]
% of control [4]: 90%

COCC(=O)NC/C=C/c1ccc2ncnc(Nc3ccc(Oc4ccc(C)nc4)c(C)c3)c2c1 [CP-724714]
% of control [5]: 100%

N#Cc1cccc(-c2c[nH]c3ncnc(N4CCOCC4)c23)c1
% of control [6]: 100%
% of control [7]: 77%

C=CC(=O)Nc1cccc(C(=O)Nc2ccc(Nc3cc(-c4[nH]c(SC)nc4C)ccn3)cc2)c1
% of control ([8]; at 1 µM): 93%
% of control ([8]; at 5 µM): 89%
